The values that follow come from ChEMBL document CHEMBL3632542, “A computational view on the significance of E-ring in binding of (+)-arisugacin A to acetylcholinesterase” (Bioorg Med Chem Lett, 2015).

Some results are limits rather than exact numbers.

The target of this test is Acetylcholinesterase (Homo sapiens, UniProt P22303). In words: Inhibition of human AChE.
Acetylcholinesterase, sequence (P22303 whole entry): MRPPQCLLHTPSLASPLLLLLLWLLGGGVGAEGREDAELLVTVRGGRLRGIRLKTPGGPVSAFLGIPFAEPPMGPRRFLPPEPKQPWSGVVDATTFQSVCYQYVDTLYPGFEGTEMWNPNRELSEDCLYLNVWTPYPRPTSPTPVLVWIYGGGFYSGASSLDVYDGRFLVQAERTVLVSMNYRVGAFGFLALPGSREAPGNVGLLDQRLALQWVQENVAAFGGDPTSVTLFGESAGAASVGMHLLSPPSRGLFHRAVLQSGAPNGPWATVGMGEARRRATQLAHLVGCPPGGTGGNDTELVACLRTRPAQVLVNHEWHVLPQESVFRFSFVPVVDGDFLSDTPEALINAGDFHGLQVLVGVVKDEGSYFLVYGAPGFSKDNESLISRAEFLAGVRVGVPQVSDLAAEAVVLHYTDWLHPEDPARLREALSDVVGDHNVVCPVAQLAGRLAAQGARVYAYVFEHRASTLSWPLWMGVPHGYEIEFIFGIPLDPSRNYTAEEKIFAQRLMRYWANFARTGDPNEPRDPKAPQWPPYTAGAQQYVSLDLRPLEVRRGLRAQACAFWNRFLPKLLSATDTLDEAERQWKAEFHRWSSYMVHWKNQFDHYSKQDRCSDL
In the case of `COc1ccc(-c2cc3c(c(=O)o2)C[C@]2(O)[C@@]4(C)[C@@H](O)C[C@@H](OC(C)=O)C(C)(C)[C@]4(O)CC[C@@]2(C)O3)cc1`, the IC50 (commonly the concentration at which inhibition is half-maximal) was greater than 100000 nM.
The result for `COc1ccc(-c2cc3c(c(=O)o2)C[C@H]2[C@@](C)(CC[C@@]4(O)C(C)(C)[C@H](O)CC[C@]24C)O3)cc1` reads greater than 100000 nM; that for `COc1ccc(-c2cc3c(c(=O)o2)C[C@@H]2[C@@]4(C)CCC(=O)C(C)(C)[C@@H]4CC[C@@]2(C)O3)cc1`, greater than 100000 nM.
Next, `COc1cc(-c2cc3c(c(=O)o2)C[C@]2(O)[C@@]4(C)C(=O)C=CC(C)(C)[C@]4(O)CC[C@@]2(C)O3)cc(OC)c1O`: 6.8 nM.
Next, `COc1ccc(-c2cc3c(c(=O)o2)C[C@]2(O)[C@@]4(C)CC[C@@H](OC(C)=O)C(C)(C)[C@]4(O)CC[C@@]2(C)O3)cc1`: 3500 nM; `COc1ccc(-c2cc3c(c(=O)o2)C[C@@H]2[C@@]4(C)CC[C@H](O)C(C)(C)[C@@H]4CC[C@@]2(C)O3)cc1`: greater than 100000 nM; `COc1ccc(-c2cc3c(c(=O)o2)C[C@H]2[C@@](C)(CC[C@@]4(O)C(C)(C)C(=O)CC[C@]24C)O3)cc1`: 2500 nM.
Consider `COc1cc(-c2cc3c(c(=O)o2)C[C@]2(O)[C@@]4(C)C(=O)C=CC(C)(C)[C@]4(O)CC[C@@]2(C)O3)cc(OC)c1OC` [TERRITREM B], for which the IC50 is 7.6 nM.
